Data published in patent publication US5391744A (priority 1993, dated 1995).
Entries after “also recorded” stand apart in the source; their conditions may differ. Read-outs that look alike come from different tables or passages of the source.

Tests used:
[1] = test system: rats trained to discriminate cocaine
[2] = test system: dopamine transporter; settings: in words; literature; cited from earlier work
[3] = test system: rats trained to discriminate cocaine; experiment: animal or person; settings: Rattus norvegicus, ip, 0.25 h, read-out: ED50 (50% cocaine-lever responding)
[4] = test system: nonhuman primates; settings: in words; literature; cited from earlier work
[5] = biological target: T1, dopamine transporter (Rattus norvegicus, UniProt P23977); design: from tissue; host or cells: rat striatal membranes; settings: 0.5 nM [^3 H]-1b; rat striata; F. I. Carroll et al.; cited from earlier work
T1 sequence (P23977 whole entry): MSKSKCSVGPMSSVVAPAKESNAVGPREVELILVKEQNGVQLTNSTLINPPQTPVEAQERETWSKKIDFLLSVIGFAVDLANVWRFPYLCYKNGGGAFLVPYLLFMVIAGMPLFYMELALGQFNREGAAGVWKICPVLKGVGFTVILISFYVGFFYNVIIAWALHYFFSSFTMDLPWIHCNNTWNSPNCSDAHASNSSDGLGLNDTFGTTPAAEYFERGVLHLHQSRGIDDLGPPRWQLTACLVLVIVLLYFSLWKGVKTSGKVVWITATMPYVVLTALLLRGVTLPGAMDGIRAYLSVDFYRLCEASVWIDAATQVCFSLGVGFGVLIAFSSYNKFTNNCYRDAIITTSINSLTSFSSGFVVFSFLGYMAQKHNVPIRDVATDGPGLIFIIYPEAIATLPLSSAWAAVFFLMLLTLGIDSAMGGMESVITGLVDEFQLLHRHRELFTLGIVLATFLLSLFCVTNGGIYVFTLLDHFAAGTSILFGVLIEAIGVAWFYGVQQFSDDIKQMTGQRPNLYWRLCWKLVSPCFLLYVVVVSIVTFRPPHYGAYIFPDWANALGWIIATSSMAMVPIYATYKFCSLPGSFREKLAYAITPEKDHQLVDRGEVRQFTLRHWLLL

[6] = biological target: T2, dopamine transporter (high-affinity uptake of [^3 H]dopamine into striatal nerve endings) (Rattus norvegicus, UniProt P23977); experiment: inhibition of high-affinity uptake of [^3 H]dopamine into striatal nerve endings (synaptosomes); assay type: biochemical
T2 construct: striatal nerve endings (synaptosomes); from tissue; host or cells: striatal nerve endings (synaptosomes)
T2 sequence (P23977 whole entry): as above

[7] = biological target: T1, dopamine transporter; experiment: displacement of [^3 H]mazindol binding from rat striatal membranes; settings: for potency / affinity increase over cocaine, mazindol binding: relative to (-)-cocaine
[8] = dose-response test, 0.625 mg/kg, 15 min, mean ± S.E.M.
[9] = dose-response test, 1.25 mg/kg, 15 min, mean ± S.E.M.
[10] = dose-response test, 2.5 mg/kg, 15 min, mean ± S.E.M.
[11] = dose-response test, 5.0 mg/kg, 15 min, mean ± S.E.M.
[12] = dose-response test, 10.0 mg/kg, 15 min, mean ± S.E.M.
[13] = temporal test, 10.0 mg/kg, 5 min, mean ± S.E.M.
[14] = temporal test, 10.0 mg/kg, 15 min, mean ± S.E.M.
[15] = temporal test, 10.0 mg/kg, 60 min, mean ± S.E.M.
[16] = temporal test, 10.0 mg/kg, 120 min, mean ± S.E.M.
[17] = mean ± SE (N), striatal synaptosomes, read-out: IC50 [^3 H] Dopamine Uptake

With `COC(=O)[C@H]1[C@@H](OC(=O)c2ccccc2)C[C@@H]2CC[C@H]1N2C` [(-)-cocaine, methyl 3-(benzoyloxy) -8-methyl-8-azabicyclo [3.2.1]octane-2 carboxylate, reference compound] the “duration of complete cocaine-like response” value ([1]; cocaine 10 mg/kg) was “approximately 60 min”, the “injection period eliciting complete cocaine-like response” value ([1]; cocaine 10 mg/kg) was 5 min and the “response type at 120 min” value ([1]; cocaine, 120 min injection period, in words) was “elicited primarily saline-appropriate responding”. The “n/N (animals completing 20 responses / tested)” value ([1]; dose-response test, 0.625 mg/kg, 15 min) was 7/7, the “% Drug responses” value [1, 8] was 6 ± 2% and the “Rate (responses/min)” value [1, 8] was 27.3 ± 5 responses/min. For the same compound, the “n/N (animals completing 20 responses / tested)” value ([1]; dose-response test, 1.25 mg/kg, 15 min) was 7/7, the “% Drug responses” value [1, 9] was 44 ± 18% and the “Rate (responses/min)” value [1, 9] was 21.3 ± 5 responses/min. The “n/N (animals completing 20 responses / tested)” value ([1]; dose-response test, 2.5 mg/kg, 15 min) was 7/7, the “% Drug responses” value [1, 10] was 61 ± 16% and the “Rate (responses/min)” value [1, 10] was 31.6 ± 16 responses/min. For the same compound, the “n/N (animals completing 20 responses / tested)” value ([1]; dose-response test, 5.0 mg/kg, 15 min) was 7/7, the “% Drug responses” value [1, 11] was 98 ± 2% and the “Rate (responses/min)” value [1, 11] was 89.0 ± 16 responses/min. For the same compound, the “n/N (animals completing 20 responses / tested)” value ([1]; dose-response test, 10.0 mg/kg, 15 min) was 7/7, the “% Drug responses” value [1, 12] was 99 ± 1% and the “Rate (responses/min)” value [1, 12] was 75.8 ± 13 responses/min. The response rates ([1]; in words, across test doses) was “fairly stable across all test doses”, the “substitution for the cocaine cue / drug-appropriate responding” value ([1]; in words, dose-dependence over the tested doses) was “increased in a dose-dependent manner” and the “n/N (animals completing 20 responses / tested)” value ([1]; temporal test, 10.0 mg/kg, 5 min) was 7/7. For the same compound, the “% Drug responses” value [1, 13] was 85 ± 13%, the “Rate (responses/min)” value [1, 13] was 28.2 ± 8 responses/min and the “n/N (animals completing 20 responses / tested)” value ([1]; temporal test, 10.0 mg/kg, 15 min) was 7/7. For the same compound, the “% Drug responses” value [1, 14] was 99 ± 1%, the “Rate (responses/min)” value [1, 14] was 75.8 ± 13 responses/min and the “n/N (animals completing 20 responses / tested)” value ([1]; temporal test, 10.0 mg/kg, 30 min) was 7/7. For the same compound, the “% Drug responses” value ([1]; temporal test, 10.0 mg/kg, 30 min, mean) was 100%, the “Rate (responses/min)” value ([1]; temporal test, 10.0 mg/kg, 30 min, mean ± S.E.M.) was 60.6 ± 11 responses/min and the “n/N (animals completing 20 responses / tested)” value ([1]; temporal test, 10.0 mg/kg, 60 min) was 7/7. The “% Drug responses” value [1, 15] was 81 ± 14%, the “Rate (responses/min)” value [1, 15] was 23.0 ± 4 responses/min and the “n/N (animals completing 20 responses / tested)” value ([1]; temporal test, 10.0 mg/kg, 120 min) was 7/7. For the same compound, the “% Drug responses” value [1, 16] was 31 ± 18%, the “Rate (responses/min)” value [1, 16] was 27.7 ± 7 responses/min and the “binding to / inhibition of the dopamine transporter” value (from here on “binding to / inhibition”) [2] was “binds to the dopamine transporter and inhibits dopamine transport”. It also gave an ED50 [3] of 1.7 mg/kg.

In the case of `COC(=O)[C@H]1[C@@H](c2ccccc2)C[C@@H]2CC[C@H]1N2C` [Compound 1a, 3β-phenyltropane-2β-carboxylic acid methyl ester], the “binding to / inhibition” value [2] is given as “most potent compounds in binding and behavioral studies” and the “potency in behavioral studies” value [4] is given as “most potent compounds in binding and behavioral studies”.

In the case of `COC(=O)[C@H]1[C@@H](c2ccc(F)cc2)C[C@@H]2CC[C@H]1N2C` [Compound 1b, 3β-(p-fluorophenyl)tropane-2β-carboxylic acid methyl ether], the “binding to / inhibition” value [2] is listed as “most potent compounds in binding and behavioral studies” and the “potency in behavioral studies” value [4] is listed as “most potent compounds in binding and behavioral studies”.

For `COC(=O)[C@H]1[C@@H](c2ccc(I)cc2)C[C@@H]2CC[C@H]1N2C` [Compound 1c], the “potency relative to (-)-cocaine, inhibition of [^3 H]-1b binding” value [5] is given as 78 times.

In the case of `COC(=O)[C@H]1[C@@H](c2ccc(Cl)cc2)C[C@@H]2CC[C@H]1N2C` [Compound 1d, 3β-(p-chlorophenyl)tropane-2β-carboxylic acid methyl ester, reference compound], the IC50 [6] is listed as 3.2 ± 0.1 nM, the “potency relative to (-)-cocaine, inhibition of [^3 H]-1b binding” value [5] is listed as 85 times and the IC50 [7] is listed as 1.7 ± 0.1 nM.

In the case of `C=C[C@H]1[C@@H](OC(=O)c2ccccc2)C[C@@H]2CC[C@H]1N2C` [Compound 2a, 3β-(Benzoyloxy)-2β-vinyltropane], the IC50 [6, 17] is reported as 1120 ± 390 nM, the “fold less potent than cocaine, dopamine uptake” value ([6]; relative to (-)-cocaine) is reported as “two-fold less potent” and the “activity relative to parent structure (cocaine)” value ([7]; Table I data, in words) is reported as “not substantially less active than the parent structure”.

In the case of `CN1[C@H]2CC[C@@H]1[C@@H](/C=C/Cl)[C@@H](OC(=O)c1ccccc1)C2` [Compound 2b, 3β-(Benzoyloxy)-2β-[(E)-2-chlorovinyl]tropane], the IC50 [6, 17] is reported as 368 ± 190 nM and the “potency / affinity increase over cocaine, mazindol binding” value [7] is reported as “approximate twofold higher affinity; also recorded: about two-fold more potent than cocaine”.

With `CN1[C@H]2CC[C@@H]1[C@@H](/C=C/Cl)[C@@H](c1ccc(Cl)cc1)C2` [Compound 2d, 3β-(4-Chlorophenyl)-2β-[(E)-2-chlorovinyl]tropane] the IC50 [6] was 1.26 ± 0.3 nM, the IC50 [7] was 0.72 ± 0.06 nM and the “potency of 2d relative to 2c” value ([7]; relative to 2c, binding affinity) was “doubling the potency”.

For `CCOC(=O)/C=C/[C@H]1[C@@H](OC(=O)c2ccccc2)C[C@@H]2CC[C@H]1N2C` [Compound 2e, 3β-(Benzoyloxy)-2β-[(E)-2-(ethoxycarbonyl)vinyl]tropane], the IC50 [6, 17] was 310 ± 10 nM, the “potency increase over cocaine, dopamine uptake” value ([6]; relative to (-)-cocaine) was 4-5 times and the IC50 [7] was 50 ± 10 nM. The “potency / affinity increase over cocaine, mazindol binding” value [7] was 4-5 fold.

With `CCOP(=O)(/C=C/[C@H]1[C@@H](OC(=O)c2ccccc2)C[C@@H]2CC[C@H]1N2C)OCC` [Compound 2f, 3β-Benzoyloxy-2β-[(E)-2-(diethoxyphosphono)vinyl]tropane] the IC50 [6] was 5500 ± 70 nM, the “inhibition of dopamine uptake” value ([6]; in words) was “found to inhibit dopamine uptake” and the “fold less potent than cocaine, dopamine uptake” value ([6]; relative to (-)-cocaine) was “about 10 fold”. It also gave an IC50 [7] of 4850 ± 470 nM.

For `OC1(c2ccc(Cl)cc2)c2ccccc2C2=NCCN21` (stereo not drawn) [mazindol], the “binding to / inhibition” value [2] is listed as “potent inhibitors of binding at the transport site for dopamine” and the “potency in maintaining self-administration” value [4] is listed as “potent in maintaining self-administration”.

For `COC(=O)C(c1ccccc1)C1CCCCN1` (stereo not drawn) [methylphendiate], the “binding to / inhibition” value [2] is given as “potent inhibitors of binding at the transport site for dopamine” and the “potency in maintaining self-administration” value [4] is given as “potent in maintaining self-administration”.

For `CN1Cc2c(N)cccc2C(c2ccccc2)C1` (stereo not drawn) [nomifensine], the “potency in maintaining self-administration” value [4] is listed as “potent in maintaining self-administration”.
